The values that follow come from PubChem BioAssay AID743429 (Vanderbilt Specialized Chemistry Center, 2014).

Active and inactive are the calls of the source. How the calls were made is not given here.

In this assay the target is Metabotropic glutamate receptor 1 (Homo sapiens) (UniProt Q13255). Description: mGlu1 agonist response modulation at 10 µM, profiling panel, selectivity assay for mGlu8/mGlu7 PAM project, cell-based, calcium fluorescence, agonist curve fold shift (AID 743429). The conditions noted are these: mGlu1 cells, Fluo-4 calcium flux. On the technique in general: A change in cytosolic calcium serves as a functional read-out for many receptors and channels.
Chain of Metabotropic glutamate receptor 1 (Homo sapiens) (Q13255 whole entry, looked up): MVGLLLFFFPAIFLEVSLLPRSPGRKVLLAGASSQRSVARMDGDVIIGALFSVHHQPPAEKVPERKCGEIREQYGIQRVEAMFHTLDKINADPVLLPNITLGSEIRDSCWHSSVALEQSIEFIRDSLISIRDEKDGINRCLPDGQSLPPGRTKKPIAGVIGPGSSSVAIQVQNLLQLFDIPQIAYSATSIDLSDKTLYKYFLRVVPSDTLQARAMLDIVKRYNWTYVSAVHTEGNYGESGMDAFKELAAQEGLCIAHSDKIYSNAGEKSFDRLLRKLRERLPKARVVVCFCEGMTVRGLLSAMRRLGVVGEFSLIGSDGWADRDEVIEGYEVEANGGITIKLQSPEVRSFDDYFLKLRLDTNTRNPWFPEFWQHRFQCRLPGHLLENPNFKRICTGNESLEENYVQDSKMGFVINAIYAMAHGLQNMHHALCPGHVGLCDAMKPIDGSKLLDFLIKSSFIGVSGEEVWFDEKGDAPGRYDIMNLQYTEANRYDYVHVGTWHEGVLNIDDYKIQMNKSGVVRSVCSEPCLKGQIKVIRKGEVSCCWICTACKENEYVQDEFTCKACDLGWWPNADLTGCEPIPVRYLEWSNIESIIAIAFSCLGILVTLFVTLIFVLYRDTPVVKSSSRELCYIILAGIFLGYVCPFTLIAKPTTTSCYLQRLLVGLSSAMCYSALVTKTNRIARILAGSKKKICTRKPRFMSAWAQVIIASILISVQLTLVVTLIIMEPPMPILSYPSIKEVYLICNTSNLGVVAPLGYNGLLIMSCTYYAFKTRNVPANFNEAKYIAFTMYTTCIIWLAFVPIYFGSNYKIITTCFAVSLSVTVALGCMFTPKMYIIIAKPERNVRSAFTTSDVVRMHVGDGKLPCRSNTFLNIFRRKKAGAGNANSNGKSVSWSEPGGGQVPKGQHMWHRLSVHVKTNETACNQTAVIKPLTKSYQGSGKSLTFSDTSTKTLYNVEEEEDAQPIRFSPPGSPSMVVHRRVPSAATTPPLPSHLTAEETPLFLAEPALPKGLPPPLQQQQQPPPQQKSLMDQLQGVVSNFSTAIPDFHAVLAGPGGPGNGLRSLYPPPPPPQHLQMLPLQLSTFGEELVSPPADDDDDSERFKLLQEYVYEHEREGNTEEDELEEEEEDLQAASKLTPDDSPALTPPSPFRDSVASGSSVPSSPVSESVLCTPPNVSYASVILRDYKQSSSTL

As to `COC(=O)c1ccc(-n2c(C)cc(C(=O)CSc3ccc(NC(C)=O)cc3)c2C)cc1`, the fold shift is 1.04 (inactive).
